Key:
Adh6 = biological target: T1, Adh6 (Saccharomyces cerevisiae, UniProt Q04894); assay: Kinetic analysis and substrate specificity of SNO-CoA reductase activity of purified Adh6; type: biochemical, yeast (S. cerevisiae); conditions: purified Adh6 20 nM, NADPH 100 μM, substrate 100 μM (FIG. 2D)
T1 construct: endogenous in cells; host or cells: S. cerevisiae cells; five-step chromatographic purification from crude extract
T1 sequence (Q04894 1-360): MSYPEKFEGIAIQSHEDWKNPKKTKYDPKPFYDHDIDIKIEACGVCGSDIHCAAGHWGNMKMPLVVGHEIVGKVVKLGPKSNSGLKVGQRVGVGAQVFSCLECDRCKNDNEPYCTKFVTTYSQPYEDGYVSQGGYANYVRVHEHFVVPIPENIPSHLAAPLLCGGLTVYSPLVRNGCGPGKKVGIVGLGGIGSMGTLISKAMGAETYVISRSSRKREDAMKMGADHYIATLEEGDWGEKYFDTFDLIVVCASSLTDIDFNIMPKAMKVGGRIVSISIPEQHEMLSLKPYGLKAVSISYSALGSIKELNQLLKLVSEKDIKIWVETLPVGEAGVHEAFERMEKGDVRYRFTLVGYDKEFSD
Experimental: (§1) Kinetic analysis was carried out with purified Adh6 and AKR1A1. The reactions contained a fixed concentration of NADPH (100 μM) and several concentrations of SNO-CoA.
(§2) Kinetic analysis was carried out employing assay conditions as above. For Km determination, reactions (4-5 replicates) were performed with a fixed amount of purified Adh6, 100 μM NADPH and SNO-CoA concentrations of 16-375 μM. Initial rates were calculated from the absorbance decrease at 340 nm using a combined extinction coefficient of 7.06 mM^−1 cm^−1 for SNO and NADPH. The kcat was determined at saturating substrate concentrations.

[1] = biological target: T2, Erg10 (acetoacetyl-CoA thiolase) (Saccharomyces cerevisiae, UniProt P41338); assay: Assay for acetoacetyl-CoA thiolase (Erg10) activity; type: biochemical, yeast (S. cerevisiae); conditions: for Effect on Erg10 thiolase activity: yeast extracts and purified protein (FIG. 4D, E)
T2 construct: Erg10 activity was assayed in extracts of WT yeast in the presence or absence of SNO-CoA; endogenous in cells; host or cells: wild-type S. cerevisiae lysate/extract
Experimental: Acetoacetyl-CoA thiolase activity was assayed in the physiological forward direction (2 acetyl-CoA→acetoactyl-CoA+CoA-SH) by following the formation of CoA-SH with 5,5′-dithiobis(2-nitrobenzoic acid) (DTNB) at 412 nm, as outlined recently for assay of HMG-CoA synthase activity. This approach avoids background absorbance in lysates and interference from added SNO-CoA in the reverse-reaction assay of acetoacetyl-CoA consumption at 300 nm (acetoacetyl-CoA+CoA-SH→2 acetyl-CoA). The assay was performed in 20 mM tris pH 8.0, containing 0.1 mM EDTA and 0.1 mM DTPA. The reaction mixture (1 ml) contained yeast lysate and 100 μM acetyl-CoA. Reaction without the addition of acetyl-CoA was used as background control. In some experiments, various concentrations of GSNO or SNO-CoA were also added. The reaction was monitored following the addition of 0.5 mM DTNB for 3 min at 412 nm. Thiolase activity was determined using rates between 1 and 3 minutes.

[2] = tested on: lysates of wild-type (WT) yeast; assay: SNO-RAC/LC-MS/MS identification of SNO-proteins in treated yeast lysates; type: biochemical, yeast (S. cerevisiae); conditions: lysates treated with 60 μM for 10 min
Experimental: For analysis in yeast, cells were grown to absorbance 600 nm=1.0 and lysed by bead beating in lysis buffer (20 mM bis-tris propane, pH 7.0, 50 mM NaCl, 100 mM EDTA, 100 μM DTPA, 1 mM PMSF and protease inhibitor cocktail (Roche)). The lysate was centrifuged at 20,000 g for 10 min and the supernatant was adjusted to 1 mg/ml protein and retained for analysis. For analysis of SNO-proteins by mercury-coupled-photolysis-chemiluminescence, samples were processed as previously described. For SNO-RAC, some samples (1 mg/ml) were left untreated or treated for 10 min with 60 μM SNO-CoA±100 μM NADPH. The reaction was stopped by adding 3 volumes of ice-cold acetone, followed by precipitation at −20° C. for 20 min. […] Eluates were analyzed by SDS-PAGE followed by Western blotting for erg10 (see below) or, for mass spectrometric analysis, individual lanes were excised from the gel and subjected to trypsin digest prior to processing for LC/MS-MS (see below). […]
Prior to analysis by LC-MS/MS, samples were passed through a C18 spin column (Thermo Pierce, Rockford, Ill.) and reconstituted in 0.1% formic acid. […] For peptide identification and quantification using iTRAQ reporter ions, MS analysis was performed using a hybrid linear ion trap Orbitrap Velos mass spectrometer (LTQ-Orbitrap Velos, Thermo, Waltham, Mass.). […]

[3] = substrate: CC(C)(COP(=O)(O)OP(=O)(O)OC[C@H]1O[C@@H](n2cnc3c(N)ncnc32)[C@H](O)[C@@H]1OP(=O)(O)O)[C@@H](O)C(=O)NCCC(=O)NCCSN=O; assay: Kinetic analysis of SNO-CoA reductase activity of purified AKR1A1; type: biochemical, bovine; conditions: other: purified AKR1A1, 100 μM NADPH; pH 7.0
Experimental: as §1
Kinetic analyses were carried out in 50 mM phosphate buffer, pH 7.0, containing 100 μM EDTA and DTPA. For Km determination, reactions (2-4 replicates) were performed with a fixed amount of purified AKR1A1, 100 μM NADPH and 2-500 μM SNO-CoA. Initial rates were calculated from the absorbance decrease at 340 nm. The kcat was determined at saturating substrate concentrations.

[4] = substrate: CC(C)(COP(=O)(O)OP(=O)(O)OC[C@H]1O[C@@H](n2cnc3c(N)ncnc32)[C@H](O)[C@@H]1OP(=O)(O)O)[C@@H](O)C(=O)NCCC(=O)NCCSN=O; assay: Kinetic analysis and substrate specificity of SNO-CoA reductase activity of purified Adh6; type: biochemical, yeast (S. cerevisiae); conditions: other: purified Adh6, 100 μM NADPH
Experimental: as §1, §2

T2 sequence (P41338 whole entry): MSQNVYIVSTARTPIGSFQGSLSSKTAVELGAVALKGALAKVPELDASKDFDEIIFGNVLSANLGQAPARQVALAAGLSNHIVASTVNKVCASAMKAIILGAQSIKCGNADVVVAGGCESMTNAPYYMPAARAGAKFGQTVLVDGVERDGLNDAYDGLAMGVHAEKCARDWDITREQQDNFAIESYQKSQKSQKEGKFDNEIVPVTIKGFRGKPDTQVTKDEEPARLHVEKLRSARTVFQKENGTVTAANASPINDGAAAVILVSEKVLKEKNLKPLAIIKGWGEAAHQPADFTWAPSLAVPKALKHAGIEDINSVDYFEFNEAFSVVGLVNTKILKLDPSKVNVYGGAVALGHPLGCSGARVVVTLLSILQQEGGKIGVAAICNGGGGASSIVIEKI

Molecule: N[C@@H](CSN=O)C(=O)O [CysNO, S-nitroso-cysteine]
- Metabolism by Adh6 (NADPH consumption) (Adh6): does not metabolize

Molecule: N[C@@H](CCC(=O)N[C@@H](CSN=O)C(=O)NCC(=O)O)C(=O)O [GSNO, S-nitrosoglutathione]
- Effect on Erg10 thiolase activity [1]: neither GSNO (FIG. 4D) nor succinyl-CoA (a CoA analogue) (FIG. 4E) had a significant effect
- Metabolism by Adh6 (NADPH consumption) (Adh6): specific for SNO-CoA versus GSNO

Molecule: CC(C)(COP(=O)(O)OP(=O)(O)OC[C@H]1O[C@@H](n2cnc3c(N)ncnc32)[C@H](O)[C@@H]1OP(=O)(O)O)[C@@H](O)C(=O)NCCC(=O)NCCSN=O [SNO-CoA, S-nitroso-CoA]
- Number of SNO-proteins identified [2]: 345
- IC50 ([1]; purified protein, read-out: IC50 for inhibition of Erg10 thiolase activity): 4 µM
- Effect on Erg10 thiolase activity [1]: potently inhibited

Molecule: CC(C)(COP(=O)(O)OP(=O)(O)OC[C@H]1O[C@@H](n2cnc3c(N)ncnc32)[C@H](O)[C@@H]1OP(=O)(O)O)[C@@H](O)C(=O)NCCC(=O)NCCSC(=O)CCC(=O)O [succinyl-CoA]
- Effect on Erg10 thiolase activity [1]: neither GSNO (FIG. 4D) nor succinyl-CoA (a CoA analogue) (FIG. 4E) had a significant effect

B1: AKR1A1 (Bos taurus) (protein)
chain: MAASCILLHTGQKMPLIGLGTWKSDPGQVKAAIKYALSVGYRHIDCAAIYGNETEIGEALKENVGPGKLVPREELFVTSKLWNTKHHPEDVEPALRKTLADLQLEYLDLYLMHWPYAFERGDSPFPKNADGTIRYDSTHYKETWRALEALVAKGLVRALGLSNFNSRQIDDVLSVASVRPAVLQVECHPYLAQNELIAHCQARNLEVTAYSPLGSSDRAWRDPEEPVLLKEPVVLALAEKHGRSPAQILLRWQVQRKVSCIPKSVTPSRILENIQVFDFTFSPEEMKQLDALNKNLRFIVPMLTVDGKRVPRDAGHPLYPFNDPY
notes: Bovine kidney tissue (˜50 g) was suspended in 100 ml of lysis buffer; tissue Rockland Immunochemicals Inc. (tissue supplier); host or cells: bovine kidney
- Km [3]: 20.5 ± 1.8 µM
- kcat [3]: 627 ± 23.76 min⁻¹

B2: Adh6 (Saccharomyces cerevisiae S288C) (protein)
chain: T1 sequence (Q04894 1-360)
notes: endogenous in cells; host or cells: S. cerevisiae cells; five-step chromatographic purification from crude extract
- Km [4]: 180.5 ± 16.8 µM
- kcat [4]: 2596.5 ± 110.7 min⁻¹

From patent publication US11351155B2, “Compositions and methods of modulating s-nitrosylation” (CASE WESTERN RESERVE UNIVERSITY, priority 2014, dated 2022)
